Values after ≈ are worked out from the molar mass of the structure shown. Like-named read-outs stand apart in the source and are kept apart here.
Legend:
B. subtilis PCI219 = experiment: Antimicrobial activity, agar dilution method; type: cell-based
From the text: (§1) The antimicrobial activity of serirubicin according to the present invention was examined. It is expressed as minimum inhibitory concentration (MIC) determined by the agar dilution method.

S. aureus 209P = experiment: Antimicrobial activity, agar dilution method; type: cell-based
From the text: as §1

S. aureus MS8710 = experiment: Antimicrobial activity, agar dilution method; type: cell-based
From the text: as §1

M. lysodeikticus IF03333 = experiment: Antimicrobial activity, agar dilution method; type: cell-based
From the text: as §1

Sal. typhi T-63 = experiment: Antimicrobial activity, agar dilution method; type: cell-based
From the text: as §1

Coryn. bovis 1810 = experiment: Antimicrobial activity, agar dilution method; type: cell-based
From the text: as §1

S. aureus MS9610 = experiment: Antimicrobial activity, agar dilution method; type: cell-based
From the text: as §1

S. aureus Smith = experiment: Antimicrobial activity, agar dilution method; type: cell-based
From the text: as §1

B. cereus ATCC10702 = experiment: Antimicrobial activity, agar dilution method; type: cell-based
From the text: as §1

L1210 cells = experiment: Growth inhibition of cultured L1210 cells; type: cell-based
From the text: (§2) These findings indicated its therapeutic effect on tumors in experimental animals.

[1] = test system: Protein synthesis in L1210 cells; experiment: Inhibition of protein synthesis in L1210 cells; type: cell-based; conditions: at 10 μg/ml
From the text: as §2

[2] = test system: DNA synthesis in L1210 cells; experiment: Inhibition of DNA synthesis in L1210 cells; type: cell-based
From the text: as §2

[3] = test system: RNA synthesis in L1210 cells; experiment: Inhibition of RNA synthesis in L1210 cells; type: cell-based
From the text: as §2

L1210 leukemia cells = type: in vivo, CDF1 mice; conditions: i.p., daily for 10 days
Protocol: CDF1 mice were intraperitoneally implanted with 1×10^5 L1210 leukemia cells/mouse as a suspension. After the implantation, 0.25 ml of a solution containing the test compound was intraperitoneally injected into each mouse, each day, for 10 days, beginning on the day of implantation.
The increase of life span (%) compared with the control group consisting of mice administered with physiological saline solution instead of the test compound solution was calculated from the following equation: [formula]

CCC1(O)CC(OC2CC(N(C)C)C(OC3CC4OC5CC(=O)C(C)OC5OC4C(C)O3)C(C)O2)c2cc3c(c(O)c2C1OC1CC(N(C)C)C(OC2CC4OC5CC(=O)C(C)OC5OC4C(C)O2)C(C)O1)C(=O)c1cccc(O)c1C3=O (stereo not drawn) [serirubicin]
MIC (B. subtilis PCI219): 0.78 µg/mL (≈ 0.669 µM)
MIC (S. aureus 209P): 0.78 µg/mL (≈ 0.669 µM)
MIC (S. aureus MS8710): 0.78 µg/mL (≈ 0.669 µM)
MIC (M. lysodeikticus IF03333): 0.78 µg/mL (≈ 0.669 µM)
MIC (Sal. typhi T-63): > 3.12 µg/mL
MIC (Coryn. bovis 1810): 0.39 µg/mL (≈ 0.335 µM)
MIC (S. aureus MS9610): 0.78 µg/mL (≈ 0.669 µM)
MIC (S. aureus Smith): 1.56 µg/mL (≈ 1.34 µM)
MIC (B. cereus ATCC10702): 0.78 µg/mL (≈ 0.669 µM)
ID50 Growth (L1210 cells; L1210 cells): 0.004 µg/mL (≈ 0.00343 µM)
Inhibition of growth (in words) (L1210 cells; cultured L1210 cells): inhibited the growth of cultured L1210 cells at very low concentrations
Protein synthesis inhibition [1]: 32%
ID50 DNA synthesis [2]: 0.46 µg/mL (≈ 0.395 µM)
ID50 RNA synthesis ([3]; L1210 cells): 0.086 µg/mL (≈ 0.0738 µM)
Inhibition of RNA synthesis (in words) ([3]; cultured L1210 cells): RNA synthesis was inhibited at particularly low concentration
Increase of life span (L1210 leukemia cells; 0.031 mg/kg/day): 119%
Increase of life span (L1210 leukemia cells; 0.063 mg/kg/day): 113%
Increase of life span (L1210 leukemia cells; 0.125 mg/kg/day): 137%
Increase of life span (L1210 leukemia cells; 0.25 mg/kg/day): 274%
Increase of life span (L1210 leukemia cells; 0.5 mg/kg/day): 143%
Increase of life span (L1210 leukemia cells; 1.0 mg/kg/day): 149%

Source: patent publication US4565861A, “Serirubicum” (Microbial Chemistry Research Foundation, priority 1983, dated 1986)
